Data reported in patent US8586620B2, “Substituted indole compounds having NOS inhibitory activity” (NeurAxon, Inc., priority 2005, dated 2013).
“Also recorded” adds a separate entry of the source. Like-named read-outs stand apart in the source and are kept apart here.

Key:
cardiogenic shock = conditions: randomized trial of 30 patients; reduced from 67%; cited from earlier work
[1] = system: formalin-induced hind paw licking; assay: Formalin-induced paw licking in mice; format: in vivo; conditions: intraperitoneally 30 minutes before formalin, Phase II (20 to 30 minute), FIG. 5
Protocol: Formalin Induced Hyperalgesia and Inflammation: In an experimental model of sustained inflammatory nociception associated with long term intracellular changes of nociceptive processing at the level of the spinal cord, mice or rats are subjected to a subplantar injection of formalin into a paw (Chapman et al., Brain Res. 697:258-261, 1995; Meller and Gebhart, Pain 52:127-136, 1993). Two distinct phases of spontaneous nociceptive behaviour exist: The first phase (Phase I) last about 5 minutes, followed by a second phase (Phase II), lasting approximately 40 minutes characterized by persistent shaking or licking of the injected paw (Fu et al., Neuroscience 101(4):1127-1135, 2000). Longer periods after injection of formalin results in the development of allodynia and hyperalgesia (1-4 weeks). […] Test compounds, including compound 12 and 7-NI, were dissolved in 1% DMSO/2% Tween 80/0.9% NaCl. Male or female ICR-derived mice weighing 23±2 g were housed in APEC® cages and maintained in a controlled temperature (22° C.-24° C.) and humidity (60%-80%) environment with 12 hr light-dark cycles for 1 week prior to use. Free access to standard lab chow and tap water was granted. […] The reduction of formalin-induced hind paw licking time was recorded during the following 20 to 30 minute period (Phase II).

CA1 hippocampal slices = assay: Evoked field potentials in CA1 hippocampal slices after OGD; format: cell-based, rat; conditions: slices after 10 min OGD; compound 12 50 μM, 7-NI 100 μM; FIG. 16
Protocol: Slice Preparation: Male Wistar rats, 180-200 gm, were anesthetized with halothane and decapitated. Their brains were removed and placed in artificial cerebral spinal fluid (ACSF) at 0.5° C. within 60 s of decapitation. […] Brains were hemisected and hippocampi were dissected out and sectioned into […] thick slices using a McIlwain Tissue chopper (Mickle Laboratory Engineering Co. Gomshall, GB). Sectioning was initiated approximately 1 mm from the rostral end of the hippocampus and approximately 12 slices were harvested from each hippocampus. Slices were distributed into groups in a rotational manner so that each group contained slices from all sectioned regions of the hippocampus. The hippocampal slices were placed on nylon mesh platforms in interface-type incubation chambers (6-8 slices per platform; 1 platform per chamber) for 90 min at 35° C. The ACSF in these chambers, and the atmosphere above it, was continuously gassed with 95% O2/5% CO2. […]
(a) Preservation of Evoked Field Potentials: The efficacy of synaptic transmission in these slices was evaluated using electrophysiological techniques. […] Evoked potentials (EP) were recorded in the CA1 from the stratum pyrimidale using glass micropipettes (2-5 megohms) filled with 150 mM NaCl. Population spike (PS) amplitude was measured from the peak downward deflection to the midway point between the 2 positive peaks. […]

Hippocampal slices = assay: Mitochondrial metabolic activity in hippocampal slices after OGD, TTC staining; format: cell-based, rat; conditions: 100 μM; 10 min OGD; control live normalized to 100%; n=5
Protocol: Brain injury can be measured in brain sections by incubating sections of fresh brain in 2,3,5-triphenyltetrazolium chloride (TTC). TTC, which is colorless, is reduced by mitochondrial succinate dehydrogenase in living tissue to a red formazan product. Combinations of photography or scanning and image analysis are then used to measure the area of normal (red) and damaged (uncolored) tissue at the surface of each section face and estimate the extent of damage. The TTC staining technique has been further refined by members of the Experimental Stroke Group at IBS (Study Host: University of Ottawa, Canada) using a solvent to extract the colored formazan product from tissue sections and measured it spectrophotometrically, thus obtaining a simple, objective measure of damage (Preston and Webster, J. Neurosci. Meth. 94(2):187-92, 1999). […]
(b) Preservation of Mitochondrial Metabolic Activity by compound 12 using TTC staining: Hippocampal slices exposed to 10 min OGD (control dead) retained 25±5% (n=5 groups of 4-5 slices) of the absorbance of slices not subjected to an insult (control live—normalized to 100%), whereas slices preincubated in 0.3 mM calcium 30 min prior to and during OGD retained 107±27% (n=5) of their absorbance (control protection). […]

[2] = molecular target: human inducible NOS (iNOS) (Homo sapiens (Human), UniProt P35228); assay: Human iNOS enzyme assay, radiometric; format: biochemical
Excerpt: Standard deviations were 10% or less.

murine macrophage iNOS = murine macrophage iNOS (Mus musculus (Mouse), UniProt P29477); assay: Murine iNOS hemoglobin capture assay; format: biochemical
Excerpt: (§1) The NOS isoforms used in this example were recombinant enzymes expressed in E. coli. Rat nNOS was expressed and purified as described previously (Roman et al., Proc. Natl. Acad. Sci. USA 92:8428-8432, 1995). The bovine eNOS isoform was isolated as reported (Martasek et al., Biochem. Biophys. Res. Commun. 219:259-365, 1996) and murine macrophage iNOS was expressed and isolated according to the procedure of Hevel et al. (J. Biol. Chem. 266:22789-22791, 1991). IC50 values and percent inhibition of NOS by the compounds of the invention were determined under initial velocity measurement conditions with the hemoglobin capture assay as previously described (Hevel and Marletta, Methods Enzymol. 133:250-258, 1994). In this assay, nitric oxide reacts with oxyhemoglobin to yield methemoglobin, which was detected at 401 nm (e=19,700 M^−1 cm^−1) on a Perkin-Elmer Lamda 10 UV/vis spectrophotometer. The assays were performed using varying test compound concentrations. Assay mixtures for nNOS or eNOS contained […], 1.6 mM CaCl2, 11.6 mg/mL calmodulin, […], 6.5 mM BH4 and […] in 100 mM Hepes (pH 7.5). Assay mixtures for iNOS contained 10 mM of L-arginine, […], 6.5 mM BH4 and […] in 100 mM Hepes (pH 7.5). All assays were conducted in a final volume of 600 μL and were initiated with enzyme.

[3] = molecular target: human endothelial constitutive NOS (eNOS) (Homo sapiens (Human), UniProt P29474); assay: Human eNOS enzyme assay, radiometric;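 note: recombinant human eNOS expressed in baculovirus-infected Sf9 cells, activity read as [3H]L-arginine turned into [3H]L-citrulline, the product isolated on ion-exchange resin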
Protocol: (§2) In a radiometric method, NO synthase activity was determined by measuring the conversion of [^3H]L-arginine to [^3H]L-citrulline.
(§3) The total volume of the reaction mixture was 150 μL in every well. […] The reaction was stopped by adding 20 μL of ice-cold buffer containing 100 mM HEPES, 3 mM EGTA, 3 mM EDTA, pH=5.5. [^3H]L-citrulline was separated by DOWEX (ion-exchange resin DOWEX 50 W X 8-400, SIGMA) and the DOWEX was removed by spinning at 12,000 g for 10 min in the centrifuge. […] All assays were performed at least in duplicate. Standard deviations were 10% or less.

[4] = molecular target: human neuronal constitutive NOS (nNOS) (Homo sapiens (Human), UniProt P29475); assay: Human nNOS enzyme assay, radiometric [3H]L-arginine to [3H]L-citrulline;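 note: recombinant human nNOS expressed in baculovirus-infected Sf9 cells, enzyme activity measured radiometrically as turnover of [3H]L-arginine into [3H]L-citrulline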
Protocol: as §2, §3

Rat nNOS = Rat nNOS (Rattus norvegicus (Rat), UniProt P29476); assay: Rat nNOS hemoglobin capture assay; format: biochemical; conditions: Table 2a
Excerpt: as §1

[5] = system: rat cortical neuronal cultures; assay: Neuroprotection of rat cortical cells against NMDA challenge; format: cell-based; conditions: 60-minute pre-incubation; 30 minutes 25 μM NMDA; propidium iodide after 24 hrs; FIG. 1
Protocol: According to a previously reported procedure (Tremblay et al., J Neurosci. 20(19):7183-92, 2000), test compounds were added for a 60-minute pre-incubation period to rat cortical neuronal cultures, which were then exposed for 30 minutes to 25 μM NMDA in buffer. After 24 hrs cultures were treated with propidium iodide and the % cell death determined and compared to control cells.

bovine eNOS = bovine eNOS (Bos taurus (Bovine), UniProt P29473); assay: Bovine eNOS hemoglobin capture assay; format: biochemical
Excerpt: as §1

persistent shock = conditions: up to 30 days; 11 patients with persistent shock; cited from earlier work
migraine = conditions: single i.v. administration; human migraine; cited from earlier work
hindpaw allodynia = assay: Experimental migraine model, inflammatory soup on dura, hindpaw allodynia; conditions: 10 mg/kg i.v 10 minutes prior to IS

## COC(=O)[C@@H](N)CCCNC(=N)N[N+](=O)[O-] [L-NAME]
Cardiogenic shock
  patient mortality: 27%

## O=[N+]([O-])c1cccc2cn[nH]c12 [Compound 7-NI, 7-nitroindazole]
[1]
  formalin-induced hind paw licking: reduction in the frequency of paw licking
CA1 hippocampal slices
  preservation of population spike: did not preserve population spike; also recorded: fiber volleys, but no PSs
Hippocampal slices
  absorbance retained (TTC staining): 81±18%

## CN(C)CCc1c[nH]c2ccc(NC(=N)c3cccs3)cc12 [Compound 18]
[2]; Table 2b, read-out: Human iNOS
  IC50: 12 µM
[2]; Table I, human NOS, dihydrochloride or monohydrochloride salts, read-out: iNOSh
  IC50: 12 µM
Murine macrophage iNOS
  IC50: 43.5 µM
[3]; read-out: Human eNOS, Table 2b
  IC50: 26 µM
[3]; read-out: eNOSh, Table I, human NOS, dihydrochloride or monohydrochloride salts
  IC50: 26 µM
[4]; Table I, ratio eNOSh/nNOSh
  e/n: 10
[4]; read-out: Human nNOS, Table 2b
  IC50: 2600 nM
[4]; read-out: nNOSh, Table I, human NOS, dihydrochloride or monohydrochloride salts
  IC50: 2600 nM
Rat nNOS
  IC50: 3.3 µM
[5]
  protection of neuronal cells from death upon NMDA challenge: protected neuronal cells from death
Bovine eNOS
  IC50: 248 µM

## CN=C(N)NCCC[C@H](N)C(=O)O.Cl [L-NMMA, L-N^G methylarginine hydrochloride]
Persistent shock
  survival rate: 72%
migraine
  response rate: 67%
Hindpaw allodynia
  development of hindpaw allodynia: prevents the development of hindpaw allodynia
